Experimental data from US20250296971A1, “GASTRIC INHIBITORY PEPTIDE RECEPTOR LIGANDS” (priority 2021, published 2025).
*1 amine or outer side, *2 acyl side, *3 side chain or, on linkers, in order; H or OH if unused. Where a SMILES comes first, the peptide text is derived from it. Bridges are numbered along the chain shown (N, C = ends). Side-chain parts run from the residue outwards. [ ]: non-standard residue; d: D form. The star is where a group is joined. X12 = O=C(O)CN1CCN(CC(=O)O)CCN(CC(=O)N[C@H](CCC(=O)NC[C@H](O)[C@@H](O)[C@H](O)[C@H](O)CO)C(=O)*)CCN(CC(=O)O)CC1; X2 = O=C(O)CN1CCN(CC(=O)O)CCN(CC(=O)N[C@@H](CCC(=O)NC[C@H](O)[C@@H](O)[C@H](O)[C@H](O)CO)C(=O)*)CCN(CC(=O)O)CC1; NH(1-deoxy-D-glucityl) = OC[C@@H](O)[C@@H](O)[C@H](O)[C@@H](O)CN*; Pro(trans-4-NH2) = O=C([C@@H]1C[C@@H](N[*:3])CN1[*:1])[*:2]; DOTA = O=C(O)CN1CCN(CC(=O)O)CCN(CC(=O)*)CCN(CC(=O)O)CC1; Trp(5-Cl) = N[C@@H](Cc1c[nH]c2ccc(Cl)cc12)C(=O)O; Pyridine(2,6-diCH2) = c1cc(C[*:1])nc(C[*:2])c1; Pro(4R-NH2) = N[C@H]1CN[C@H](C(=O)O)C1; Glutaryl = O=C(CCCC(=O)[*:2])[*:1]; Hyp = O=C(O)[C@@H]1C[C@@H](O)CN1; X1 = O=C(CN1CCC(N[*:1])CC1)[*:2]; Suc = O=C(CCC(=O)[*:2])[*:1]; Api = NC1(C(=O)O)CCNCC1; Thp = NC1(C(=O)O)CCOCC1

Key:
[1] = biological target: T1, GIPR (CHO-K1-hGIPR cells) (Homo sapiens, UniProt P48546); experiment: FACS binding assay; conditions: competition with 20 nM GIP-057, 4° C., 1 hour, read-out: pIC50 Category (converted)
T1 construct: host or cells: CHO-K1
T1 sequence (P48546 22-466): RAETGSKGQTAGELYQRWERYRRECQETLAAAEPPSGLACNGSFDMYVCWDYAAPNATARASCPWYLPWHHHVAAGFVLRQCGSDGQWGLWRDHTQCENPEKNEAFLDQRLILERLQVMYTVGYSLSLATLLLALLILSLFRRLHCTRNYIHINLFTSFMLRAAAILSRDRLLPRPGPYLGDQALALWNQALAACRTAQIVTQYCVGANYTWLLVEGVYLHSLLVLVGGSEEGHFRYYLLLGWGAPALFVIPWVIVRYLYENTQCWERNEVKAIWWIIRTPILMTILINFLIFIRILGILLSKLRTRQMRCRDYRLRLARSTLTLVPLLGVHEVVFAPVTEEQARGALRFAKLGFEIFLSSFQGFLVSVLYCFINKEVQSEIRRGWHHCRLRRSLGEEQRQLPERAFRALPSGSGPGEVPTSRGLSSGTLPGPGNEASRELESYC
Summary of the method: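 Median fluorescence in the APC channel, measured on washed CHO-K1 cells overexpressing human GIPR, was fitted by four-parameter logistic regression against peptide concentration to yield EC50 or IC50 values. Secondary labelling used APC-streptavidin (1 μg/mL, 30 min, ice).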

[2] = biological target: T2, human GIP receptor (bioGIPR) (Homo sapiens, UniProt P48546); experiment: Surface plasmon resonance (SPR) based binding assay; conditions: Single Cycle Kinetic mode, 25° C.; for t1/2 Category: SPR dissociation half-life; for Kd: SPR, 1:1 Langmuir binding model, read-out: pKD Category (converted)
T2 construct: Biotinylate extracellular of the human GIP receptor (bioGIPR, Proteros biostructures GmbH, lot #02/2b); purchased Proteros biostructures GmbH lot #02/2b
T2 sequence (P48546 22-138 limits assumed): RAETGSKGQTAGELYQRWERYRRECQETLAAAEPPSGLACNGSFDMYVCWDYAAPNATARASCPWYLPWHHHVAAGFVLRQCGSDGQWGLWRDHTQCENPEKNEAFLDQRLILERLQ
Method: Surface plasmon resonance (SPR) studies were performed using a Biacore™ T200 SPR system. Briefly, polarized light is directed towards a gold-labeled sensor surface, and minimum intensity reflected light is detected. The angle of reflected light changes as molecules bind and dissociate.
Biotinylate extracellular of the human GIP receptor (bioGIPR, Proteros biostructures GmbH, lot #02/2b) was captured on a biotin capture chip (Biotin CAPture Kit, Series S, GE Healthcare, Cat #28-9202-34). bioGIPR was diluted in Running Buffer (HBST from Xantec Analytics; […], 0.05% Tween20, 0.1% DMSO) to a final concentration 100 nM and than flushed over the Fc-capture chip to immobilized ˜3500 RUs.
Stock solutions of test compounds were prepared by dissolving each compound in DMSO. DMSO stock solution were diluted 1:1000 in Running Buffer without DMSO. Further sequential dilutions were made with Running Buffer containing 0.1% DMSO. SPR binding analyses were performed in Single Cycle Kinetic (SCK) mode at 25° C. Flow cell without immobilized bioGIPR served as reference flowcell. After each SCK run, bioGIRP and the Biotin Capture Reagent was removed with Regeneration Solution (6 M Guanidium, 0.75 M NaOH).
In between every three SCK measurements, a blank run with Running Buffer instead of test compound was included to correct for baseline drifts (double blanking method).
For each test compound, SPR raw data in the form of resonance units (RU) were plotted as sensorgrams using the Biacore™ T200 control software. The signal from the blank sensorgram was subtracted from that of the test compound sensorgram (blank corrected). The blank corrected sensorgram was corrected for baseline drift by subtracting the sensorgram of a SCK run without the test compound (running buffer only). The association rate (kon), dissociation rate (koff), dissociation constant (KD), and t1/2 were calculated from blank corrected SPR data using the 1:1 Langmuir binding model from the Biacore™ T200 evaluation software. Raw data and fit results were imported as text files in IDBS. The pKD value (negative decadic logarithm of dissociation constant) was calculated in the IDBS excel template.

SMILES	IC50 [1] [nM]	t1/2 Category [2]	Kd [2] [nM]
CC[C@H](C)[C@@H]1NC(=O)[C@H](CC(C)C)NC(=O)C2(CCOCC2)NC(=O)[C@@H](NC(=O)[C@@H](CC(C)C)NC(=O)[C@H](CCC(=O)O)NC(=O)[C@@H]2C[C@@H](O)CN2C(=O)[C@H](Cc2c[nH]c3ccc(Cl)cc23)NC(=O)[C@H](Cc2c[nH]c3ccccc23)NC(=O)[C@H](CC(=O)O)NC(=O)CCCC(=O)NC[C@H](O)[C@@H](O)[C@H](O)[C@H](O)CO)CSCc2cccc(n2)CSC[C@@H](C(=O)NC2CCN(CC(=O)N[C@H](CCC(=O)NC[C@H](O)[C@@H](O)[C@H](O)[C@H](O)CO)C(=O)N[C@@H](CCCCNC(=O)CN3CCN(CC(=O)O)CCN(CC(=O)O)CCN(CC(=O)O)CC3)C(N)=O)CC2)NC1=O [GIP-004, AGLU-Glutar-Asp-Trp-5Clw-Hyp-Glu-leu-[Cys(2Lut)-Thp-Leu-Ile-Cys]-APAc-glu(AGLU)-Lys(DOTA)-NH2] ({NH(1-deoxy-D-glucityl)-Glutaryl}-DW[Trp(5-Cl)][Hyp]E[dL]C[Thp]LIC[X1][dE](NH(1-deoxy-D-glucityl))K(DOTA)-NH2; linker 7-11 via Pyridine(2,6-diCH2))	< 10	A (t1/2 values>15 min)	< 1
CC[C@H](C)[C@@H]1NC(=O)[C@H](CC(C)C)NC(=O)C2(CCN(C(=O)CN3CCN(CC(=O)O)CCN(CC(=O)O)CCN(CC(=O)O)CC3)CC2)NC(=O)[C@@H](NC(=O)[C@@H](CC(C)C)NC(=O)[C@H](CCC(=O)O)NC(=O)[C@@H]2C[C@@H](NC(=O)CCCC(=O)NC[C@H](O)[C@@H](O)[C@H](O)[C@H](O)CO)CN2C(=O)[C@H](Cc2c[nH]c3ccc(Cl)cc23)NC(=O)[C@H](Cc2c[nH]c3ccccc23)NC(=O)[C@H](CC(=O)O)NC(=O)CN2CCC(NC(=O)CCCC(=O)NC[C@H](O)[C@@H](O)[C@H](O)[C@H](O)CO)CC2)CSCc2cccc(n2)CSC[C@@H](C(=O)NC2CCN(CC(=O)N[C@H](CCC(=O)NC[C@H](O)[C@@H](O)[C@H](O)[C@H](O)CO)C(N)=O)CC2)NC1=O [GIP-006, AGLU-Glutar-APAc-Asp-Trp-5Clw-Tap(AGLU-Glutar)-Glu-leu-[Cys(2Lut)-Apc(DOTA)-Leu-Ile-Cys]-APAc-glu(AGLU)-NH2] ({NH(1-deoxy-D-glucityl)-Glutaryl}-[X1]DW[Trp(5-Cl)][Pro(trans-4-NH2)]([Glutaryl-NH(1-deoxy-D-glucityl)])E[dL]C[Api](DOTA)LIC[X1][dE](NH(1-deoxy-D-glucityl))-NH2; linker 8-12 via Pyridine(2,6-diCH2))	< 10	A (t1/2 values>15 min)	< 1
CC[C@H](C)[C@@H]1NC(=O)[C@H](CC(C)C)NC(=O)C2(CCN(C(=O)[C@H](CCC(=O)NC[C@H](O)[C@@H](O)[C@H](O)[C@H](O)CO)NC(=O)CN3CCN(CC(=O)O)CCN(CC(=O)O)CCN(CC(=O)O)CC3)CC2)NC(=O)[C@@H](NC(=O)[C@@H](CC(C)C)NC(=O)[C@H](CCC(=O)O)NC(=O)[C@@H]2C[C@@H](NC(=O)CCCC(=O)NC[C@H](O)[C@@H](O)[C@H](O)[C@H](O)CO)CN2C(=O)[C@H](Cc2c[nH]c3ccc(Cl)cc23)NC(=O)[C@H](Cc2c[nH]c3ccccc23)NC(=O)[C@H](CC(=O)O)NC(=O)CN2CCC(NC(=O)CCCC(=O)NC[C@H](O)[C@@H](O)[C@H](O)[C@H](O)CO)CC2)CSCc2cccc(n2)CSC[C@@H](C(=O)NC2CCN(CC(=O)N[C@H](CCC(=O)NC[C@H](O)[C@@H](O)[C@H](O)[C@H](O)CO)C(N)=O)CC2)NC1=O [GIP-007, AGLU-Glutar-APAc-Asp-Trp-5Clw-Tap(AGLU-Glutar)-Glu-leu-[Cys(2Lut)-Apc(DOTA-glu(AGLU))-Leu-Ile-Cys]-APAc-glu(AGLU)-NH2] ({NH(1-deoxy-D-glucityl)-Glutaryl}-[X1]DW[Trp(5-Cl)][Pro(trans-4-NH2)]([Glutaryl-NH(1-deoxy-D-glucityl)])E[dL]C[Api](X2)LIC[X1][dE](NH(1-deoxy-D-glucityl))-NH2; linker 8-12 via Pyridine(2,6-diCH2))	10 to 79.4	A (t1/2 values>15 min)	< 1
CC[C@H](C)[C@@H]1NC(=O)[C@H](CC(C)C)NC(=O)C2(CCN(C(=O)[C@@H](CCC(=O)NC[C@H](O)[C@@H](O)[C@H](O)[C@H](O)CO)NC(=O)CN3CCN(CC(=O)O)CCN(CC(=O)O)CCN(CC(=O)O)CC3)CC2)NC(=O)[C@@H](NC(=O)[C@@H](CC(C)C)NC(=O)[C@H](CCC(=O)O)NC(=O)[C@@H]2C[C@@H](N)CN2C(=O)[C@H](Cc2c[nH]c3ccc(Cl)cc23)NC(=O)[C@H](Cc2c[nH]c3ccccc23)NC(=O)[C@H](CC(=O)O)NC(=O)CN2CCC(NC(=O)CCCC(=O)NC[C@H](O)[C@@H](O)[C@H](O)[C@H](O)CO)CC2)CSCc2cccc(n2)CSC[C@@H](C(=O)NC2CCN(CC(=O)N[C@H](CCC(=O)NC[C@H](O)[C@@H](O)[C@H](O)[C@H](O)CO)C(N)=O)CC2)NC1=O [GIP-008, AGLU-Glutar-APAc-Asp-Trp-5Clw-Tap-Glu-leu-[Cys(2Lut)-Apc(DOTA-glu(AGLU))-Leu-Ile-Cys]-APAc-glu(AGLU)-NH2] ({NH(1-deoxy-D-glucityl)-Glutaryl}-[X1]DW[Trp(5-Cl)][Pro(4R-NH2)]E[dL]C[Api](X12)LIC[X1][dE](NH(1-deoxy-D-glucityl))-NH2; linker 8-12 via Pyridine(2,6-diCH2))	< 10	A (t1/2 values>15 min)	< 1

The remaining lines, values ahead:

IC50 [1] [nM]	t1/2 Category [2]	Kd [2] [nM]	SMILES
< 10	A (t1/2 values>15 min)	< 1	CC[C@H](C)[C@@H]1NC(=O)[C@H](CC(C)C)NC(=O)C2(CCN(C(=O)CN3CCN(CC(=O)O)CCN(CC(=O)O)CCN(CC(=O)O)CC3)CC2)NC(=O)[C@@H](NC(=O)[C@@H](CC(C)C)NC(=O)[C@H](CCC(=O)O)NC(=O)[C@@H]2C[C@@H](O)CN2C(=O)[C@H](Cc2c[nH]c3ccc(Cl)cc23)NC(=O)[C@H](Cc2c[nH]c3ccccc23)NC(=O)[C@H](CC(=O)O)NC(=O)CN2CCC(NC(=O)CCCC(=O)NC[C@H](O)[C@@H](O)[C@H](O)[C@H](O)CO)CC2)CSCc2cccc(n2)CSC[C@@H](C(=O)NC2CCN(CC(=O)N[C@H](CCC(=O)NC[C@H](O)[C@@H](O)[C@H](O)[C@H](O)CO)C(N)=O)CC2)NC1=O [GIP-011, AGLU-Glutar-APAc-Asp-Trp-5Clw-Hyp-Glu-leu-[Cys(2Lut)-Apc(DOTA)-Leu-Ile-Cys]-APAc-glu(AGLU)-NH2] ({NH(1-deoxy-D-glucityl)-Glutaryl}-[X1]DW[Trp(5-Cl)][Hyp]E[dL]C[Api](DOTA)LIC[X1][dE](NH(1-deoxy-D-glucityl))-NH2; linker 8-12 via Pyridine(2,6-diCH2))
< 10	A (t1/2 values>15 min)	< 1	CC[C@H](C)[C@@H]1NC(=O)[C@H](CC(C)C)NC(=O)C2(CCOCC2)NC(=O)[C@@H](NC(=O)[C@@H](CC(C)C)NC(=O)[C@H](CCC(=O)O)NC(=O)[C@@H]2C[C@@H](O)CN2C(=O)[C@H](Cc2c[nH]c3ccc(Cl)cc23)NC(=O)[C@H](Cc2c[nH]c3ccccc23)NC(=O)CCC(=O)O)CSCc2cccc(n2)CSC[C@@H](C(=O)NC2CCN(CC(=O)N[C@H](CCC(=O)NC[C@H](O)[C@@H](O)[C@H](O)[C@H](O)CO)C(=O)N[C@@H](CCCCNC(=O)CN3CCN(CC(=O)O)CCN(CC(=O)O)CCN(CC(=O)O)CC3)C(N)=O)CC2)NC1=O [GIP-021, HO-Succinyl-Trp-5Clw-Hyp-Glu-leu-[Cys(2Lut)-Thp-Leu-Ile-Cys]-APAc-glu(AGLU)-Lys(DOTA)-NH2] (Suc-W[Trp(5-Cl)][Hyp]E[dL]C[Thp]LIC[X1][dE](NH(1-deoxy-D-glucityl))K(DOTA)-NH2; linker 6-10 via Pyridine(2,6-diCH2))
